According to patent US6426357B1, “Antagonists of follicle stimulating hormone activity” (Affymax, Inc., priority 1999, dated 2002):

Structure (SMILES): NC(=O)CCN1C(=O)[C@@H](CC(=O)NCCc2ccc(Br)cc2)S[C@H]1c1ccc(C#Cc2ccccc2)s1 (relative stereo) [Example 13, 3-[(2S*,5R*)-5-{[2-(4-Bromo-phenyl)-ethylcarbamoyl]-methyl}-4-oxo-2-(5-phenylethynyl-thiophen-2-yl)-thiazolidin-3-yl]-propionamide]
- melting point: 241 to 243 °C
